In patent US11351218B2, “Composition for preventing or treating glioblastoma comprising Platycodon grandiflorum A. De Candolle, Scutellaria baicalensis, Phellodendron amurense Ruprecht or Rubus coreanus” (University-Industry Cooperation Group of Kyung Hee …, priority 2019, dated 2022):

Legend:
U87MG and U373MG cells [1] = experiment: WST1 cell viability assay, GBM cells; type: cell-based, human
Procedure: FIGS. 6A and 6B show the results that PD induces a decrease in cell viability and vacuole formation. […] Data shown represent the means of quintuplicate measurements which were repeated three times. The results are presented as a percentage of control (means±SD).
Cell cytotoxicity was assessed by WST1 assay. U87 and U373 cells were each seeded in a 96-well plate (5×10^3 cells/well) and treated with different concentrations of platycodin D (PD). Then, cells were incubated with a WST1 reagent (Dogen, Seoul, Korea) for 2 hours before reading the plate. Absorbance was measured at 450 nm using an ELISA reader (Versa Max, Molecular Devices, Sunnyvale, Calif., USA).

U87MG and U373MG cells [2] = experiment: Cholesterol measurement (total cholesterol assay kit) in GBM cells; type: cell-based, human; conditions: PD 10 μM or U18666a 1 μM, 24 hours
Procedure: (§1) FIGS. 15A and 15B show the results that PD promotes accumulation of cholesterol in lysosomes. Cells were treated with DMSO, PD (10 μM), or U18666a (1 μM) for 24 hours. […] Total cholesterol levels are expressed in cholesterol (μg) per protein (mg) of cell lysate and are shown as means±SD from two independent experiments.
Cells treated as described above were processed using a total cholesterol assay kit (STA384, Cell Biolabs) according to the manufacterer's instructions. Cholesterol esters and free cholesterol were quantified by homogenizing 10^6 cells extracted from a 200 μL mixture of chloroform: isopropanol: NP-40 (7:11:0.1). After centrifugation of the extract at 15,000× g for 10 minutes, the organic phase was collected and evaporated at 50° C. The extract was resuspended in 200 μL of a 1× cholesterol assay diluent prior to analysis. The colorimetric signal was analyzed using an ELISA reader (Versa Max, Molecular Devices, Sunnyvale, Calif., USA) at 540 nm. Cellular cholesterol results were reported as μg of cholesterol per mg of cell protein.

U87MG and U373MG cells [3] = experiment: Clonogenic assay, GBM cells; type: cell-based, human; conditions: PD 10 μM or 20 μM, 7 days
Procedure: FIGS. 19A and 19B show the results that MβCD restores PD-mediated decrease in cell viability. […] Data shown represent the means of quintuplicate measurements which were repeated three times. The results are presented as a percentage of control (means±SD).
Approximately 2×10^3 cells were seeded into each 6-well plate and then treated as described in FIG. 19. After 7 days, the cells were washed with PBS and stained with 0.5% crystal violet.
Furthermore, as can be confirmed in FIG. 19B, a colony formation assay was performed to confirm the effects of MβCD on PD-mediated GBM cell death.

U87MG and U373MG cells [4] = experiment: Cholesterol cell-based detection assay (filipin III staining) in GBM cells; parameters: species or system human; conditions: PD 10 μM or U18666a 1 μM, 24 hours
Procedure: as §1
Cells grown on coverslips were treated with the materials. Then, the cells were fixed with 4% PFA at room temperature for 10 minutes. The solution of Filipin III (Cayman) was added for staining of […] cholesterol and the samples were incubated in a dark room for 30 minutes. The images were examined under a Zeiss laser confocal microscope.
The present inventors concluded that PD inhibits the maturation of autophagosome into autolysosomes by inhibiting lysosomal degradation and an autophagosome-lysosome fusion in GBM cells. […] To examine whether the defect in the autophagosome-lysosome fusion by PD is due to altered intracellular cholesterol levels, the PD-treated GBM cells were stained with filipin-III, which is a fluorescent dye that binds to cholesterol. […] As can be confirmed in FIG. 14A, this filipin-III staining pattern is very similar to that found in GBM cells treated with U18666A, implying that PD blocks cholesterol release from lysosome and accumulates cholesterol in lysosomes.

LDLR-silenced GBM cells = experiment: WST1 assay and immunoblot in LDLR-silenced (shLDLR) GBM cells; type: cell-based, human
From the text: FIGS. 20A and 20B show the results that downregulation of LDLR restores inhibition of autophagy and cell viability. […] The expressions of LDLR, LC3B, SQSTM1, and pro/active CTSB were detected by immunoblot analysis. GAPDH was used as a loading control. […] Data shown represent the means of quintuplicate measurements which were repeated three times. The results are presented as a percentage of control (means±SD).
shRNA sequences against LDLR were cloned into a lentiviral vector. For the production of lentivirus, the vectors were co-transfected with psPAX2 and pMD2.G in 293T cells using Lipofectamine 3,000 (Invitrogen). Then, the cultured medium was harvested. The viral supernatant was applied to GBMs and cells were selected in puromycin for 3 additional days. The shRNA sequence was as follows. shLDLR sequence: 5′-CCACTTGTAGGAGATGCAT-3′ (SEQ ID NO: 7).
The present inventors hypothesized that the enhanced expression of LDLR and uptake of exogenous cholesterol by PD may promote accumulation of cholesterol in lysosomes and contribute to PD-mediated inhibition of autophagy and cell viability in GBM cells. To this end, the expression of LDLR gene was silenced in GBM cells using lentiviral shRNA transduction.

LDLR = experiment: Immunoblot of LDLR in U87MG, U373MG cells and normal astrocytes; type: cell-based, human; conditions: 24 hours
Procedure: FIGS. 16A to 16D show the results that PD increases the expression of LDLR on cell surfaces in GBM cells. […] GAPDH was used as a loading control. […] GAPDH was used as a loading control.
Cells treated with the concentrations and materials described in FIGS. 1-3B, 7, 8, 10, 13, 16, 18, and 20 were lysed in buffer containing 20 mM Tris-HCl (pH 7.5), 150 mM NaCl, 1 mM EDTA, 1 mM Na2EDTA, 1 mM EGTA, 1% NP-40, 1% sodium deoxycholate, 1 mM Na3VO4, 1 mM MPI, 1 mM PMSF, and PI cocktails for 15 to 20 minutes on ice. Cell lysates were separated by SDS-PAGE and transferred to nitrocellulose membranes. Immunodetection was performed with the following primary antibodies: rabbit anti-LC3B, rabbit anti-cathepsin B, rabbit-anti GAPDH (Cell Signaling Technology, Danvers, Mass.), mouse anti-SQSTM1/p62, and goat anti-cathepsin D (Santa CruzKPL, Gaithersburg, Md., USA) were incubated at room temperature for 1 hour. The protein bands were detected with ECL western Blotting Substrate (Thermo Fisher Scientific, Waltham, Mass., USA).
Brain is the most cholesterol-rich organ of the body, containing about 20% of total body cholesterol. […] As can be confirmed in FIG. 16A, in consistent with these reports, the LDLR protein level was markedly elevated in U87MG and U373MG cells relative to normal human astrocytes. […] Then, the cell surface expression of LDLR was confirmed by flow cytometry.

SMILES: C[C@@H]1O[C@@H](O[C@H]2[C@H](OC(=O)[C@]34CCC(C)(C)C[C@H]3C3=CC[C@@H]5[C@@]6(C)C[C@H](O)[C@H](O[C@@H]7O[C@H](CO)[C@@H](O)[C@H](O)[C@H]7O)C(CO)(CO)[C@@H]6CC[C@@]5(C)[C@]3(C)C[C@H]4O)OC[C@H](O)[C@@H]2O)[C@H](O)[C@H](O)[C@H]1O[C@@H]1OC[C@@H](O)[C@H](O[C@@H]2OC[C@](O)(CO)[C@H]2O)[C@H]1O [PD, platycodin D]
- viability of GBM cells (U87MG and U373MG cells [1]; 10 μM PD, 3 days): reduced the viability
- percentage of viable cells (U87MG and U373MG cells [1]; PD 0-20 μM, 48 hours, dose-dependent): significantly decreased
- cell viability (U87MG and U373MG cells [1]; PD 10 μM, 48 hours, GBM cells, percentage of control): approximately 60%
- free cholesterol levels (U87MG and U373MG cells [2]): significant increase
- colony-forming ability (U87MG and U373MG cells [3]): abolished
- cellular cholesterol distribution (filipin-III staining) (U87MG and U373MG cells [4]): induces cholesterol accumulation within intracellular vesicles
- reduction of cell viability (LDLR-silenced GBM cells; LDLR-silenced GBM cells, PD 10 μM or 20 μM, WST1): less effective
- LC3-II, p62 and cathepsin B response to PD (LDLR-silenced GBM cells; knockdown of LDLR, PD 5 μM or 10 μM, 24 hours, immunoblot): prevented the upregulation of LC3-II and p62 as well as the inactivation of cathpsin B
- LDLR expression (LDLR; PD 5 μM and 10 μM or U18666a 1 μM, U87MG, U373MG and normal astrocytes): significantly increased
- degree of LDLR expression, GBM cells vs normal astrocytes (LDLR; PD 5 μM and 10 μM): more prominent in GBM cells than in normal astrocytes
